{"source": "PubChem BioAssay (NCI)", "assay_in_all_cases": "NCI-60 cell line screen, 48 h", "key": {"[1]": {"system": "SNB-19 CNS"}, "[2]": {"system": "A549 NSCLC"}, "[3]": {"system": "786-0 renal"}, "[4]": {"system": "HL-60(TB) leukemia"}, "[5]": {"system": "OVCAR-3 ovarian"}, "[6]": {"system": "IGROV1 ovarian"}, "[7]": {"system": "NCI-H460 lung"}, "[8]": {"system": "OVCAR-8 ovarian"}, "[9]": {"system": "LXFL 529 NSCLC"}, "[10]": {"system": "EKVX NSCLC"}, "[11]": {"system": "M19-MEL melanoma"}, "[12]": {"system": "NCI-H522 lung"}, "[13]": {"system": "SK-MEL-2 melanoma"}, "[14]": {"system": "UACC-257 melanoma"}, "[15]": {"system": "SK-MEL-28 melanoma"}, "[16]": {"system": "OVCAR-5 ovarian"}, "[17]": {"system": "CAKI-1 renal"}, "[18]": {"system": "OVCAR-4 ovarian"}, "[19]": {"system": "SF-539 CNS"}, "[20]": {"system": "DLD-1 colon"}, "[21]": {"system": "SW-620 colon"}, "[22]": {"system": "SF-295 CNS"}, "[23]": {"system": "MOLT-4 leukemia"}, "[24]": {"system": "SF-268 CNS"}, "[25]": {"system": "RXF 393 renal"}, "[26]": {"system": "DMS 273 small cell lung"}, "[27]": {"system": "KM12 colon"}, "[28]": {"system": "SN12C renal"}, "[29]": {"system": "HOP-18 NSCLC"}, "[30]": {"system": "HCT-15 colon"}, "[31]": {"system": "SNB-75 CNS"}, "[32]": {"system": "K-562 leukemia"}, "[33]": {"system": "KM20L2 colon"}, "[34]": {"system": "HT29 colon"}, "[35]": {"system": "DMS 114 small cell lung"}, "[36]": {"system": "UACC-62 melanoma"}, "[37]": {"system": "RPMI-8226 leukemia"}, "[38]": {"system": "UO-31 renal"}, "[39]": {"system": "SK-OV-3 ovarian"}, "[40]": {"system": "U251 CNS"}, "[41]": {"system": "HOP-92 NSCLC"}, "[42]": {"system": "ACHN renal"}, "[43]": {"system": "COLO 205 colon"}, "[44]": {"system": "NCI-H23 lung"}, "[45]": {"system": "SK-MEL-5 melanoma"}, "[46]": {"system": "RXF-631 renal"}, "[47]": {"system": "HCC-2998 colon"}, "[48]": {"system": "HOP-62 NSCLC"}, "[49]": {"system": "LOX IMVI melanoma"}, "[50]": {"system": "MALME-3M melanoma"}, "[51]": {"system": "TK-10 renal"}, "[52]": {"system": "M14 melanoma"}, "[53]": {"system": "CCRF-CEM leukemia"}, "[54]": {"system": "NCI-H226 lung"}, "[55]": {"system": "SNB-78 CNS"}, "[56]": {"system": "XF 498 CNS"}, "[57]": {"system": "A498 renal"}}, "note": "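Assay format: 96-well plates, 48-hour exposure. TGI denotes the concentration required for complete inhibition of growth.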"}
{"smiles": "COc1ccc2[nH]c3c(cnn4cnnc34)c2c1", "values": [{"measurement": "TGI", "setting": "[1]", "value": "> 100", "unit": "µM"}, {"measurement": "TGI", "setting": "[2]", "value": "> 100", "unit": "µM"}, {"measurement": "TGI", "setting": "[3]", "value": "> 100", "unit": "µM"}, {"measurement": "TGI", "setting": "[4]", "value": "> 100", "unit": "µM"}, {"measurement": "TGI", "setting": "[5]", "value": "> 100", "unit": "µM"}, {"measurement": "TGI", "setting": "[6]", "value": "> 100", "unit": "µM"}, {"measurement": "TGI", "setting": "[7]", "value": "> 100", "unit": "µM"}, {"measurement": "TGI", "setting": "[8]", "value": "> 100", "unit": "µM"}, {"measurement": "TGI", "setting": "[9]", "value": "> 100", "unit": "µM"}, {"measurement": "TGI", "setting": "[10]", "value": "> 100", "unit": "µM"}, {"measurement": "TGI", "setting": "[11]", "value": "> 100", "unit": "µM"}, {"measurement": "TGI", "setting": "[12]", "value": "> 100", "unit": "µM"}, {"measurement": "TGI", "setting": "[13]", "value": "> 100", "unit": "µM"}, {"measurement": "TGI", "setting": "[14]", "value": "> 100", "unit": "µM"}, {"measurement": "TGI", "setting": "[15]", "value": "> 100", "unit": "µM"}, {"measurement": "TGI", "setting": "[16]", "value": "> 100", "unit": "µM"}, {"measurement": "TGI", "setting": "[17]", "value": "> 100", "unit": "µM"}, {"measurement": "TGI", "setting": "[18]", "value": "> 100", "unit": "µM"}, {"measurement": "TGI", "setting": "[19]", "value": "> 100", "unit": "µM"}, {"measurement": "TGI", "setting": "[20]", "value": "> 100", "unit": "µM"}, {"measurement": "TGI", "setting": "[21]", "value": "> 100", "unit": "µM"}, {"measurement": "TGI", "setting": "[22]", "value": "> 100", "unit": "µM"}, {"measurement": "TGI", "setting": "[23]", "value": "> 100", "unit": "µM"}, {"measurement": "TGI", "setting": "[24]", "value": "> 100", "unit": "µM"}, {"measurement": "TGI", "setting": "[25]", "value": "> 100", "unit": "µM"}, {"measurement": "TGI", "setting": "[26]", "value": "> 100", "unit": "µM"}, {"measurement": "TGI", "setting": "[27]", "value": "> 100", "unit": "µM"}, {"measurement": "TGI", "setting": "[28]", "value": "> 100", "unit": "µM"}, {"measurement": "TGI", "setting": "[29]", "value": "> 100", "unit": "µM"}, {"measurement": "TGI", "setting": "[30]", "value": "> 100", "unit": "µM"}, {"measurement": "TGI", "setting": "[31]", "value": "> 100", "unit": "µM"}, {"measurement": "TGI", "setting": "[32]", "value": "> 100", "unit": "µM"}, {"measurement": "TGI", "setting": "[33]", "value": "> 100", "unit": "µM"}, {"measurement": "TGI", "setting": "[34]", "value": "> 100", "unit": "µM"}, {"measurement": "TGI", "setting": "[35]", "value": "> 100", "unit": "µM"}, {"measurement": "TGI", "setting": "[36]", "value": "> 100", "unit": "µM"}, {"measurement": "TGI", "setting": "[37]", "value": "> 100", "unit": "µM"}, {"measurement": "TGI", "setting": "[38]", "value": "> 100", "unit": "µM"}, {"measurement": "TGI", "setting": "[39]", "value": "> 100", "unit": "µM"}, {"measurement": "TGI", "setting": "[40]", "value": "> 100", "unit": "µM"}, {"measurement": "TGI", "setting": "[41]", "value": "> 100", "unit": "µM"}, {"measurement": "TGI", "setting": "[42]", "value": "> 100", "unit": "µM"}, {"measurement": "TGI", "setting": "[43]", "value": "> 100", "unit": "µM"}, {"measurement": "TGI", "setting": "[44]", "value": "> 100", "unit": "µM"}, {"measurement": "TGI", "setting": "[45]", "value": "> 100", "unit": "µM"}, {"measurement": "TGI", "setting": "[46]", "value": "> 100", "unit": "µM"}, {"measurement": "TGI", "setting": "[47]", "value": "> 100", "unit": "µM"}, {"measurement": "TGI", "setting": "[48]", "value": "> 100", "unit": "µM"}, {"measurement": "TGI", "setting": "[49]", "value": "> 100", "unit": "µM"}, {"measurement": "TGI", "setting": "[50]", "value": "> 100", "unit": "µM"}, {"measurement": "TGI", "setting": "[51]", "value": "> 100", "unit": "µM"}, {"measurement": "TGI", "setting": "[52]", "value": "> 100", "unit": "µM"}, {"measurement": "TGI", "setting": "[53]", "value": "> 100", "unit": "µM"}]}
{"smiles": "CCN=C1NN=C(c2ccccc2)c2cc(Cl)ccc2N1", "values": [{"measurement": "TGI", "setting": "[1]", "value": "> 100", "unit": "µM"}, {"measurement": "TGI", "setting": "[54]", "value": 43.3, "unit": "µM"}, {"measurement": "TGI", "setting": "[2]", "value": "> 100", "unit": "µM"}, {"measurement": "TGI", "setting": "[3]", "value": 34.1, "unit": "µM"}, {"measurement": "TGI", "setting": "[4]", "value": 62.3, "unit": "µM"}, {"measurement": "TGI", "setting": "[5]", "value": 43.7, "unit": "µM"}, {"measurement": "TGI", "setting": "[6]", "value": 70, "unit": "µM"}, {"measurement": "TGI", "setting": "[8]", "value": 69.4, "unit": "µM"}, {"measurement": "TGI", "setting": "[10]", "value": 92.7, "unit": "µM"}, {"measurement": "TGI", "setting": "[11]", "value": 39.5, "unit": "µM"}, {"measurement": "TGI", "setting": "[12]", "value": 30.2, "unit": "µM"}, {"measurement": "TGI", "setting": "[13]", "value": 32.8, "unit": "µM"}, {"measurement": "TGI", "setting": "[55]", "value": 72, "unit": "µM"}, {"measurement": "TGI", "setting": "[14]", "value": 34.3, "unit": "µM"}, {"measurement": "TGI", "setting": "[15]", "value": 33.7, "unit": "µM"}, {"measurement": "TGI", "setting": "[16]", "value": 60.9, "unit": "µM"}, {"measurement": "TGI", "setting": "[17]", "value": 36.9, "unit": "µM"}, {"measurement": "TGI", "setting": "[18]", "value": "> 100", "unit": "µM"}, {"measurement": "TGI", "setting": "[19]", "value": 35.8, "unit": "µM"}, {"measurement": "TGI", "setting": "[21]", "value": 63.8, "unit": "µM"}, {"measurement": "TGI", "setting": "[22]", "value": 37.5, "unit": "µM"}, {"measurement": "TGI", "setting": "[23]", "value": 94.8, "unit": "µM"}, {"measurement": "TGI", "setting": "[24]", "value": 91.1, "unit": "µM"}, {"measurement": "TGI", "setting": "[25]", "value": 58, "unit": "µM"}, {"measurement": "TGI", "setting": "[26]", "value": 26.2, "unit": "µM"}, {"measurement": "TGI", "setting": "[27]", "value": 31.1, "unit": "µM"}, {"measurement": "TGI", "setting": "[28]", "value": 88.5, "unit": "µM"}, {"measurement": "TGI", "setting": "[29]", "value": "> 100", "unit": "µM"}, {"measurement": "TGI", "setting": "[30]", "value": 48.6, "unit": "µM"}, {"measurement": "TGI", "setting": "[31]", "value": 45.8, "unit": "µM"}, {"measurement": "TGI", "setting": "[32]", "value": "> 100", "unit": "µM"}, {"measurement": "TGI", "setting": "[34]", "value": 32.3, "unit": "µM"}, {"measurement": "TGI", "setting": "[35]", "value": 43.9, "unit": "µM"}, {"measurement": "TGI", "setting": "[36]", "value": 31.7, "unit": "µM"}, {"measurement": "TGI", "setting": "[56]", "value": 45.2, "unit": "µM"}, {"measurement": "TGI", "setting": "[57]", "value": 90, "unit": "µM"}, {"measurement": "TGI", "setting": "[37]", "value": 87.1, "unit": "µM"}, {"measurement": "TGI", "setting": "[38]", "value": 70.2, "unit": "µM"}, {"measurement": "TGI", "setting": "[39]", "value": 68.7, "unit": "µM"}, {"measurement": "TGI", "setting": "[40]", "value": 42.6, "unit": "µM"}, {"measurement": "TGI", "setting": "[41]", "value": 47.5, "unit": "µM"}, {"measurement": "TGI", "setting": "[42]", "value": "> 100", "unit": "µM"}, {"measurement": "TGI", "setting": "[43]", "value": 35.4, "unit": "µM"}, {"measurement": "TGI", "setting": "[44]", "value": 64.6, "unit": "µM"}, {"measurement": "TGI", "setting": "[45]", "value": 30.7, "unit": "µM"}, {"measurement": "TGI", "setting": "[46]", "value": 41.7, "unit": "µM"}, {"measurement": "TGI", "setting": "[47]", "value": 34.4, "unit": "µM"}, {"measurement": "TGI", "setting": "[48]", "value": 48.2, "unit": "µM"}, {"measurement": "TGI", "setting": "[49]", "value": 36.7, "unit": "µM"}, {"measurement": "TGI", "setting": "[50]", "value": 33.7, "unit": "µM"}, {"measurement": "TGI", "setting": "[51]", "value": 62.7, "unit": "µM"}, {"measurement": "TGI", "setting": "[52]", "value": 33.5, "unit": "µM"}, {"measurement": "TGI", "setting": "[53]", "value": "> 100", "unit": "µM"}]}
